Results: paper PMC6959561, “Expression of acyl-CoA-binding protein 5 from Rhodnius prolixus and its inhibition by RNA interference” (PLoS ONE, 2020)

Molecular target: T1, RpACBP-5 (acyl-CoA-binding protein 5) (Rhodnius prolixus, UniProt M4WG04)
T1 construct: recombinant RpACBP-5 expressed in E. coli BL21 (DE3) (GenBank KC417418; 261 bp)
Test: isothermal titration calorimetry (VP-ITC, […]°C, pH […])

T1 sequence (M4WG04 entry or part of it): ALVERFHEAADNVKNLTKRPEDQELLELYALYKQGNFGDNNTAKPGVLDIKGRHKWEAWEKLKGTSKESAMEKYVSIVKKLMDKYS

Kd: 399 ± 266 nM
SMILES: CCCCCCCCCCCC(=O)SCCNC(=O)CCNC(=O)[C@H](O)C(C)(C)COP(=O)(O)OP(=O)(O)OC[C@H]1O[C@@H](n2cnc3c(N)ncnc32)[C@H](O)[C@@H]1OP(=O)(O)O [lauroyl-CoA]
